Measurements published in US20250312412A1, “METHODS FOR TREATING DRY EYE DISEASE” (The Schepens Eye Research Institute, Inc., priority 2022, published 2025).
Residues, ends and D or L forms follow the SMILES beside them.

Assays:
[1] = tested on: human corneal epithelial cells; experiment: Co-culture of human corneal epithelial cells and Th17 cells, density and morphology by microscopy, Examples 2 and 3; assay type: cell-based; settings: 0.1 μM, 1 μM, 10 μM and 100 μM; 24 hours
Procedure: A co-culture of human corneal epithelial cells and Th17 cells was prepared, to mimic the in vivo interaction between Th17 cells and cornea tissue in dry eye disease. The therapeutic efficacy of an IL-17 inhibitor to protect the human corneal epithelial cells from Th17-induced damage was tested. Immortalized human corneal epithelial cells were obtained. To acquire human Th17 cells, naïve CD4+ T cells were first purified from primary human peripheral blood mononuclear cells (StemCell) by negative selection using MACS separation, follow by in vitro polarization to Th17 cells using human Th17 cell differentiation kit (RnD Systems) in X-VIVO 15 medium (Lonza). Successful differentiation of human Th17 cells was confirmed by flow cytometry before co-culture. At about 80% confluence of human corneal epithelial cell culture, 1×10^5 Th17 cells were added, with and without an IL-17 inhibitor. After 24 hours of co-culture in the presence of the IL-17 inhibitor, the density and morphology of human corneal epithelial cells were observed under a bright-light inverted microscope equipped with a camera.
A co-culture of human corneal epithelial cells and Th17 cells was prepared, to mimic the in vivo interaction between Th17 cells and cornea tissue in dry eye disease. The therapeutic efficacy of an IL-17 inhibitor to protect the human corneal epithelial cells from Th17-induced damage was tested. […]

[2] = tested on: goblet cells; experiment: Goblet cell count in conjunctival tissue sections of dry eye mice, Example 1; assay type: in vivo; settings: conjunctiva, mice with dry eye disease treated twice daily
Procedure: With continued reference to the study of Example 1, ocular tissue was harvested from the mice and tissue sections were prepared for microscopy analysis. Cross-sections of the conjunctiva were stained and the images were inspected to quantify goblet cell density. Goblet cells within the conjunctival epithelium secrete mucins onto the surface of the eye. FIG. 3A is an image of conjunctiva from a healthy mouse with no dry eye disease, and the goblet cells are visible as the darkly stained, plump cells. FIGS. 3B-3E are images from the conjunctiva from a subject in the animals with dry eye disease and treated twice daily with saline as a control (FIG. 3B), cyclosporine ophthalmic emulsion (RESTASIS®; FIG. 3C), lifitegrast ophthalmic solution (XIIDRA®) (FIG. 3D), or anti-IL-17A antibody (FIG. 3E). The numbers of goblet cells were counted, and FIG. 3F is a bar graph of the percent of normal goblet cells for the normal (healthy) mice and mice with dry eye disease treated with saline, cyclosporine, lifitegrast or an IL-17A inhibitor. […] Subjects with dry eye disease and treated with cyclosporine or with lifitegrast had about 60% of the normal number of goblet cells. […]

[3] = tested on: mice induced with dry eye disease; experiment: Corneal fluorescein staining (CFS) score in mice with induced dry eye disease, Example 1; assay type: in vivo; settings: topical to the eye, day 4 to day 12; antibody 1 wt % once or twice daily, lifitegrast 5 wt % twice daily, cyclosporine 0.05 wt % twice daily
Procedure: FIG. 1 is a graph of corneal fluorescein staining (CFS) scored using the National Eye Institute Industry Workshop Scale of 0-15, as a function of time, in days, in mice induced with dry eye disease by placing them in a controlled-environment chamber (relative humidity: <20%, dry airflow: 15 L/min, temperature: 21˜23° C.) for 14 days. Corneal epithelial disease was evaluated using corneal fluorescein staining (CFS) and scored using the National Eye Institute Industry Workshop Scale of 0-15, at day 0 (normal baseline), day 4 (before instillation of topical therapy), day 7, day 10, and […] in mice treated by topical application to the eye with an anti-IL-17A antibody once daily (closed circles) or twice daily (closed squares), lifitegrast (XIIDRA®) twice daily (inverted triangles), cyclosporine (RESTASIS®) twice daily (triangles), or saline twice daily (diamonds).
In a first study, described in Example 1, treatment of dry eye disease with an IL-17 cytokine inhibitor, lifitegrast ophthalmic solution (XIIDRA®), and cyclosporine ophthalmic emulsion (RESTASIS®) were compared. […] The test compounds were applied topically to the eye for 9 days (from day 4 to day 12), and disease severity was evaluated using corneal fluorescein staining (CFS) and scored using the National Eye Institute Industry Workshop Scale of 0-15 on days 4, 7, 10 and 12. […]

CC[C@H](C)[C@H](NC(=O)[C@H](Cc1c[nH]c2ccccc12)NC(=O)[C@H](CC(=O)O)NC(=O)[C@H](Cc1c[nH]c2ccccc12)NC(=O)[C@H](CC(C)C)NC(=O)[C@H](CC(=O)O)NC(=O)[C@H](C)NC(=O)[C@@H]1CCCN1C(=O)[C@@H](NC(=O)[C@@H](NC(=O)[C@@H](NC(=O)[C@H](Cc1c[nH]cn1)NC(=O)[C@@H](N)C(C)C)C(C)C)[C@@H](C)O)[C@@H](C)CC)C(=O)N[C@@H](CC(N)=O)C(=O)N[C@@H](CCCCN)C(=O)O [SEQ ID NO: 1, VHVTIPADLWDWINK] (H-VHVTIPADLWDWINK-OH)
toxicity to human corneal epithelial cells [1]: not toxic to the human corneal epithelial cells

CS(=O)(=O)c1cccc(C[C@H](NC(=O)c2c(Cl)cc3c(c2Cl)CCN(C(=O)c2ccc4ccoc4c2)C3)C(=O)O)c1 [lifitegrast]
goblet cells, percent of the normal number [2]: about 60%
effect on dry eye disease severity (disease score, CFS) [3]: no improvement in reducing in disease severity for the first six days of treatment, followed by an improved disease score at day 12
